Measurements as given in US12624018B1, “Inhibitors of RIPK2 and medical uses thereof” (Odyssey Therapeutics, Inc., priority 2022, dated 2026).

Target: T1, RIPK2 enzyme (Homo sapiens, UniProt O43353)
T1 construct: purchased Carna 09-128
Assay: RIPK2 inhibition (ADP-Glo Kinase Assay)
Format: biochemical
Settings: RIPK2 5 nM, ATP 150 μM, MBP substrate, read-out: RIPK2 IC50
Outline: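 Swine MBP substrate; compound and 5 nM RIPK2 first mixed for 30 min at room temperature; buffer pH 7.5 HEPES 50 mM with 10 mM MgCl2, 2 mM DTT, 1 mM EGTA, Brij-35, BSA.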

T1 sequence (O43353 1-299 limits assumed): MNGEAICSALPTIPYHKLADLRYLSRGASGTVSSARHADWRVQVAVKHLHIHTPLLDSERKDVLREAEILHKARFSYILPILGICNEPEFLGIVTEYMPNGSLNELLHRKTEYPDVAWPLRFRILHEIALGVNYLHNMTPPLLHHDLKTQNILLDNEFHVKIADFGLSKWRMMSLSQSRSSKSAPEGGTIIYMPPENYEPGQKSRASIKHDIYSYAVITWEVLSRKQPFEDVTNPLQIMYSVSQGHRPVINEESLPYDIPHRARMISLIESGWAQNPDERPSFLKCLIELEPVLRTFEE

IC50 [nM] | SMILES
< 2.5 | Cc1cc(CC(=O)Nc2cnn(C(C)(C)C)c2)c(F)cc1Oc1ccnc2ccc(C(=O)N3CCC3)cc12 [Compound 369, 2-(4-((6-(azetidine-1-carbonyl)quinolin-4-yl)oxy)-2-fluoro-5-methyl-phenyl)-N-(1-(tert-butyl)-1H-pyrazol-4-yl)acetamide]
< 2.5 | Cc1cc(CC(=O)Nc2cnn(C(C)(C)C)c2)c(F)cc1Oc1ccnc2ccc(C(=O)N3CC(F)C3)cc12 [Compound 370, N-(1-(tert-butyl)-1H-pyrazol-4-yl)-2-(2-fluoro-4-((6-(3-fluoro-azetidine-1-carbonyl)quinolin-4-yl)oxy)-5-methyl-phenyl) acetamide]
< 2.5 | Cc1cc(CC(=O)Nc2cnn(C(C)(C)C)c2)c(F)cc1Oc1ccnc2ccc(C(=O)N3CC(C#N)C3)cc12 [Compound 371, N-(1-(tert-butyl)-1H-pyrazol-4-yl)-2-(4-((6-(3-cyano-azetidine-1-carbonyl)quinolin-4-yl)oxy)-2-fluoro-5-methyl-phenyl) acetamide]
< 2.5 | Cc1cc(CC(=O)Nc2cnn(C(C)(C)C)c2)c(F)cc1Oc1ccnc2ccc(C(=O)N3CC4(COC4)C3)cc12 [Compound 372, 2-(4-((6-(2-oxa-6-azaspiro[3.3]heptane-6-carbonyl)quinolin-4-yl)oxy)-2-fluoro-5-methyl-phenyl)-N-(1-(tert-butyl)-1H-pyrazol-4-yl)acetamide]
< 2.5 | Cc1cc(CC(=O)Nc2cnn(C(C)(C)C)c2)c(F)cc1Oc1ccnc2ccc(C(=O)N3CC(O)C3)cc12 [Compound 373, N-(1-(tert-butyl)-1H-pyrazol-4-yl)-2-(2-fluoro-4-((6-(3-hydroxy-azetidine-1-carbonyl)quinolin-4-yl)oxy)-5-methylphenyl) acetamide]
< 2.5 | Cc1cc(CC(=O)Nc2cnn(C(C)(C)C)c2)c(F)cc1Oc1ccnc2ccc(C(=O)N3CC(N)C3)cc12 [Compound 374, 2-(4-((6-(3-amino-azetidine-1-carbonyl)quinolin-4-yl)oxy)-2-fluoro-5-methyl-phenyl)-N-(1-(tert-butyl)-1H-pyrazol-4-yl)acetamide]
< 2.5 | Cc1cc(CC(=O)Nc2cnn(C(C)(C)C)c2)c(F)cc1Oc1ccnc2ccc(C(=O)N3CCCC3)cc12 [Compound 377, N-(1-(tert-butyl)-1H-pyrazol-4-yl)-2-(2-fluoro-5-methyl-4-((6-(pyrrolidine-1-carbonyl)quinolin-4-yl)oxy)phenyl) acetamide]
< 2.5 | Cc1cc(CC(=O)Nc2cnn(C(C)(C)C)c2)c(F)cc1Oc1ccnc2ccc(C(=O)N3CCOCC3)cc12 [Compound 378, N-(1-(tert-butyl)-1H-pyrazol-4-yl)-2-(2-fluoro-5-methyl-4-((6-(morpholine-4-carbonyl)quinolin-4-yl)oxy)phenyl) acetamide]
< 2.5 | Cc1cc(CC(=O)Nc2cnn(C(C)(C)C)c2)c(F)cc1Oc1ccnc2ccc(C(=O)N3CCNCC3)cc12 [Compound 379, N-(1-(tert-butyl)-1H-pyrazol-4-yl)-2-(2-fluoro-5-methyl-4-((6-(piperazine-1-carbonyl)quinolin-4-yl)oxy)phenyl) acetamide]
< 2.5 | Cc1cc(CC(=O)Nc2cnn(C(C)(C)C)c2)c(F)cc1Oc1ccnc2ccc(C(=O)N3CCC(O)CC3)cc12 [Compound 380, N-(1-(tert-butyl)-1H-pyrazol-4-yl)-2-(2-fluoro-4-((6-(4-hydroxy-piperidine-1-carbonyl)quinolin-4-yl)oxy)-5-methyl-phenyl) acetamide]
< 2.5 | Cc1cc(CC(=O)Nc2cnn(C(C)(C)C)c2)c(F)cc1Oc1ccnc2ccc(P(C)(C)=O)cc12 [Compound 381, N-(1-(tert-butyl)-1H-pyrazol-4-yl)-2-(4-((6-(dimethylphosphoryl)quinolin-4-yl)oxy)-2-fluoro-5-methylphenyl) acetamide]
< 2.5 | COc1cc2nccc(Oc3ccc(CC(=O)Nc4cnn(C(C)(C)C)c4)c(F)c3C)c2cc1P(C)(C)=O [Compound 382, N-(1-(tert-butyl)-1H-pyrazol-4-yl)-2-(4-((6-(dimethylphosphoryl)-7-methoxyquinolin-4-yl)oxy)-2-fluoro-3-methylphenyl) acetamide]
< 2.5 | Cc1c(Oc2ccnc3ccc(P(C)(C)=O)cc23)ccc(CC(=O)Nc2cc(C(C)(C)C)n[nH]2)c1F [Compound 383, N-(5-(tert-butyl)-1H-pyrazol-3-yl)-2-(4-((6-(dimethylphosphoryl)quinolin-4-yl)oxy)-2-fluoro-3-methylphenyl) acetamide]
< 2.5 | Cc1c(Oc2ccnc3ccc(C(=O)N4C[C@@H](C)O[C@@H](C)C4)cc23)ccc(CC(=O)Nc2cnn(C(C)(C)C)c2)c1F [Compound 384, N-(1-(tert-butyl)-1H-pyrazol-4-yl)-2-(4-((6-((2R,6S)-2,6-dimethyl-morpholine-4-carbonyl)quinolin-4-yl)oxy)-2-fluoro-3-methyl-phenyl) acetamide]
< 2.5 | Cc1c(Oc2ccnc3ccc(C(=O)N4C[C@@H](C)N[C@@H](C)C4)cc23)ccc(CC(=O)Nc2cnn(C(C)(C)C)c2)c1F [Compound 385, N-(1-(tert-butyl)-1H-pyrazol-4-yl)-2-(4-((6-((3R,5S)-3,5-dimethyl-piperazine-1-carbonyl)quinolin-4-yl)oxy)-2-fluoro-3-methylphenyl) acetamide]
< 2.5 | Cc1c(Oc2ccnc3ccc(S(=O)(=O)N4C[C@@H](C)O[C@@H](C)C4)cc23)ccc(CC(=O)Nc2cnn(C(C)(C)C)c2)c1F [Compound 386, N-(1-(tert-butyl)-1H-pyrazol-4-yl)-2-(4-((6-(((2R,6S)-2,6-dimethylmorpholino)sulfonyl)quinolin-4-yl)oxy)-2-fluoro-3-methylphenyl)acetamide]
< 2.5 | Cc1c(Oc2ccnc3ccc(S(=O)(=O)N4C[C@@H](C)N[C@@H](C)C4)cc23)ccc(CC(=O)Nc2cnn(C(C)(C)C)c2)c1F [Compound 387, N-(1-(tert-butyl)-1H-pyrazol-4-yl)-2-(4-((6-(((3R,5S)-3,5-dimethylpiperazin-1-yl)sulfonyl)quinolin-4-yl)oxy)-2-fluoro-3-methylphenyl)acetamide]
< 2.5 | Cc1cc(CC(=O)Nc2cnn(C(C)(C)C)c2)c(F)cc1Oc1ccnc2ccc(C(=O)N3C[C@@H](C)N[C@@H](C)C3)cc12 [Compound 388, N-(1-(tert-butyl)-1H-pyrazol-4-yl)-2-(4-((6-((3R,5S)-3,5-dimethyl-piperazine-1-carbonyl)quinolin-4-yl)oxy)-2-fluoro-5-methyl-phenyl) acetamide]
2.9 | Cc1cc(CC(=O)Nc2cnn(C(C)(C)C)c2)c(F)cc1Oc1ccnc2ccc(S(=O)(=O)N3C[C@@H](C)O[C@@H](C)C3)cc12 [Compound 389, N-(1-(tert-butyl)-1H-pyrazol-4-yl)-2-(4-((6-(((2R,6S)-2,6-dimethylmorpholino)sulfonyl)quinolin-4-yl)oxy)-2-fluoro-5-methylphenyl)acetamide]
< 2.5 | Cc1cc(CC(=O)Nc2cnn(C(C)(C)C)c2)c(F)cc1Oc1ccnc2ccc(S(=O)(=O)N3C[C@@H](C)N[C@@H](C)C3)cc12 [Compound 390, N-(1-(tert-butyl)-1H-pyrazol-4-yl)-2-(4-((6-(((3R,5S)-3,5-dimethylpiperazin-1-yl)sulfonyl)quinolin-4-yl)oxy)-2-fluoro-5-methylphenyl)acetamide]
< 2.5 | Cc1cc(CC(=O)Nc2cnn(C(C)(C)C)c2)c(F)cc1Oc1ccnc2ccc(C(=O)NCC3COC3)cc12 [Compound 391, 4-(4-(2-((1-(tert-butyl)-1H-pyrazol-4-yl)amino)-2-oxoethyl)-5-fluoro-2-methyl-phenoxy)-N-(oxetan-3-ylmethyl) quinoline-6-carboxamide]
< 2.5 | Cc1cc(CC(=O)Nc2cnn(C(C)(C)C)c2)c(F)cc1Oc1ccnc2ccc(C(=O)NC3COC3)cc12 [Compound 392, 4-(4-(2-((1-(tert-butyl)-1H-pyrazol-4-yl)amino)-2-oxoethyl)-5-fluoro-2-methyl-phenoxy)-N-(oxetan-3-yl)quinoline-6-carboxamide]
< 2.5 | Cc1cc(CC(=O)Nc2cnn(C(C)(C)C)c2)c(F)cc1Oc1ccnc2ccc(C(=O)N[C@H]3C[C@H](O)C3)cc12 [Compound 393, 4-(4-(2-((1-(tert-butyl)-1H-pyrazol-4-yl)amino)-2-oxoethyl)-5-fluoro-2-methyl-phenoxy)-N-((1r,3r)-3-hydroxy-cyclobutyl) quinoline-6-carboxamide]
< 2.5 | Cc1cc(CC(=O)Nc2cnn(C(C)(C)C)c2)c(F)cc1Oc1ccnc2ccc(C(=O)N[C@H]3C[C@@H](O)C3)cc12 [Compound 394, 4-(4-(2-((1-(tert-butyl)-1H-pyrazol-4-yl)amino)-2-oxoethyl)-5-fluoro-2-methyl-phenoxy)-N-((1s,3s)-3-hydroxy-cyclobutyl) quinoline-6-carboxamide]
< 2.5 | Cc1cc(CC(=O)Nc2cnn(C(C)(C)C)c2)c(F)cc1Oc1ccnc2ccc(C(=O)NC3CNC3)cc12 [Compound 397, N-(azetidin-3-yl)-4-(4-(2-((1-(tert-butyl)-1H-pyrazol-4-yl)amino)-2-oxoethyl)-5-fluoro-2-methyl-phenoxy) quinoline-6-carboxamide]
< 2.5 | Cc1cc(CC(=O)Nc2cnn(C(C)(C)C)c2)c(F)cc1Oc1ccnc2ccc(C(=O)NC3CC(F)(F)C3)cc12 [Compound 398, 4-(4-(2-((1-(tert-butyl)-1H-pyrazol-4-yl)amino)-2-oxoethyl)-5-fluoro-2-methyl-phenoxy)-N-(3,3-difluoro-cyclobutyl) quinoline-6-carboxamide]

Same assay, conditions: RIPK2 IC50 (nM), RIPK2 5 nM, ATP 150 μM, MBP substrate

IC50 [nM] | SMILES
< 2.5 | COCCN(C)C(=O)c1ccc2nccc(Oc3cc(F)c(CC(=O)Nc4cnn(C(C)(C)C)c4)cc3C)c2c1 [Compound 368, 4-(4-(2-((1-(tert-butyl)-1H-pyrazol-4-yl)amino)-2-oxoethyl)-5-fluoro-2-methyl-phenoxy)-N-(2-methoxy-ethyl)-N-methyl-quinoline-6-carboxamide]
